# Assay results taken from publication PMC4697807, “Novel Zn^2+ Modulated GPR39 Receptor Agonists Do Not Drive Acute Insulin Secretion in Rodents” (PLoS ONE, 2015).
# How the values were obtained:
# DIO mice = experiment: IPGTT in DIO mice; type: in vivo, mouse; conditions: 100 mg/kg group, IP; group terminated
# Description: (§1) Six-week-old male C57BL/6J mice were purchased from CLEA (Tokyo, Japan). Fourteen-week-old and fifteen-week-old male DIO mice were purchase from Charles River Japan (Yokohama, Japan). They were used after at least one week acclimation period. C57BL/6J mice were allowed free access to a normal diet (CRF-1, Oriental Yeast, Tokyo, Japan). DIO mice were allowed free access to a high-fat diet with 60 kcal% fat (D12492, Research Diets, New Brunswick, NJ). They were kept under standard 12-h light/dark cycle. Animal experiments were approved by the Institutional Animal Care and Use Committee of Mitsubishi Tanabe Pharma Corporation.
# Fifteen-week-old and twenty one-week-old DIO mice were used. The mice were fasted for 3 h and were randomly grouped based on the body weight. Five ml/kg of a solution of vehicle (10% DMF/18% Cremophore) or compounds were administered IP. Thirty min later, 1.0 g/10 ml/kg of glucose solution was administered IP. Blood samples were obtained from the tail vein at -30, 0, 15, 30, 60, and 120 min after glucose challenge. Plasma glucose and insulin were measured.
# Statistical analysis was performed using SAS9.1.3 with student’s t-test or Dunnett’s test. All data were expressed as mean ± standard error of mean (SEM). P values of <0.05 were considered to be statistically significant.
# [1] = Unbound plasma exposure in the IPGTT; type: in vivo, mouse; conditions: 0-30 min after glucose challenge; IP; lean mice
# Protocol: Plasma protein binding of test compound was examined by an equilibrium dialysis method. The compound was mixed with blank mouse plasma to a concentration of 10 μM. The plasma sample and PBS were added to a sample chamber and a buffer chamber of an equilibrium dialysis device, respectively. The device was incubated for 4 h at 37°C in a CO2 incubator (oscillation: 180 rpm). After incubation, an aliquot in each chamber was collected. They were mixed with acetonitrile/methanol (50/50, v/v) and were centrifuged. The supernatants were analyzed by LC-MS/MS. Plasma unbound fraction (f) was calculated by Eq 2, f=Cf/Ct (2) where Cf and Ct represent the compound concentration in the buffer and sample chamber, respectively. […]
# The unbound plasma concentrations were calculated by correcting the total plasma concentration derived from the LC/MS analysis by the free fraction, f u. The exposure in terms of the area under the unbound concentration-time curve in the interval 30–60 min after drug administration AUCu 30–60min, i.e. the interval 0–30 min after glucose challenge, was calculated using the linear up-log down trapezoidal method in the non compartmental module of Phoenix 6.2 (Pharsight). […] The ratio between C u,av and the EC 50 of the different in vitro potency assays was calculated for each compound and dose administered.
# INS-1E cells = experiment: Glucose stimulated insulin secretion (GSIS) in INS-1E cells; type: cell-based, rat; conditions: for effect on GSIS: 1, 3 and 10 μM compound, 11.1 mM glucose; for unbound concentration yielding significant increases in GSIS (highest unbound concentration): free fraction calculated for 0.1% BSA
# Protocol: INS-1E cells obtained from Dr. Wollheim (Univ. Geneva, Switzerland), were grown in Roswell Park Memorial Institute medium (RPMI) 1640 (Life technologies) supplemented with 5% of fetal bovine serum (Thermo Fischer Scientific, Inc. Waltham, MA). At 4 or 5 days before the assay, cells were plated in 24-well plates at 2 × 10^5 cells /well. At the day of the assay, cells were washed twice by Krebs-Ringer bicarbonate (KRB) buffer containing 0.1% BSA (pH7.4) and pre-incubated at 37°C for 30 min. The cells were washed twice again, and the buffer was replaced by KRB buffer containing 0, 1, 3 and 10 μM of compounds and 11.1 mM of glucose. In order to examine whether Zn^2+ has an enhancing effect on the activity of each compound, 20 μM of Zn^2+ was added in the incubation buffer as necessary. After cells were stimulated at 37°C for 1 h, the reaction was terminated by placing on ice. The buffer was collected from each well and precipitated (1000 rpm for 2 min at 25°C) in order to be separated from the cells. For each sample, concentration of insulin was measured using HTRF insulin kit (Cisbio).
# The free fraction in the INS-1E assay, containing 0.1% w/w BSA, was calculated by using the equilibrium conditions of a single binding site model as in Eq 3.
# The free fraction in mouse plasma corresponds to 1—CP/Ptot.
# C57BL/6J mice = experiment: Intraperitoneal glucose tolerance test (IPGTT) in C57BL/6J mice; type: in vivo, mouse; conditions: 30 and 100 mg/kg IP, 30 min before 1.5 g/kg glucose IP; fasted lean mice
# Description: as §1
# Seven-week-old and eight-week-old C57BL/6J mice were used. Mice were fasted overnight and were randomly grouped. Five ml/kg of a solution of vehicle (10% dimethylformamide (DMF)/18% Cremophore) or compounds were intraperitoneally (IP) administered. Thirty min later, 1.5 g/20 ml/kg of glucose solution was IP administered. […] Plasma glucose was measured using Glucose CII Test Wako Kit (Wako Pure Chemical Industries, Osaka, Japan). Plasma insulin was measured using Ultra Sensitive Mouse Insulin ELISA Kit (Morinaga, Yokohama, Japan).
# Statistical analysis was performed using SAS9.1.3 with student’s t-test or Dunnett’s test. All data were expressed as mean ± standard error of mean (SEM). […]
Structure (SMILES),adverse findings (DIO mice),"average in vivo exposure (C u,av), unbound [1]",effect on GSIS (INS-1E cells; absence of Zn^2+),effect on GSIS (INS-1E cells; presence of 20 μM Zn^2+),unbound concentration yielding significant increases in GSIS (highest unbound concentration) (INS-1E cells),insulinotropic effect (C57BL/6J mice)
"N#Cc1ccc(OCCn2ccnc2)c(OCCn2ccnc2)c1 [AZ1395, 3,4-bis-(2-imidazol-1-ylethoxy)-benzonitrile]",severe hyperglycemia and associated morbidity/mortality in some animals,,,,,
"Cc1nc2c(C(=O)O)cnn2c(O)c1Cc1ccc(Cl)cc1 [AZ4237, 6-[(4-chlorophenyl)methyl]-7-hydroxy-5-methyl-pyrazolo[1,5-a]pyrimidine-3-carboxylic acid]",,19 µM,no effects,dose dependent GSIS increases,7.2 µM,did not elicit insulinotropic effects in vivo
"Cc1nc(-c2nc3c(c(=O)[nH]2)CN(C(=O)c2cccc(Cl)c2F)CC3)cs1 [AZ7914, 6-(3-chloro-2-fluoro-benzoyl)-2-(2-methylthiazol-4-yl)-3,5,7,8-tetrahydropyrido-[4,3-d]pyrimidin-4-one]",,29 µM,no effects,dose dependent GSIS increases,8.4 µM,did not elicit insulinotropic effects in vivo
